Assay results published in publication PMC3229595, “Discovery of Novel MDR-Mycobacterium tuberculosis Inhibitor by New FRIGATE Computational Screen” (PLoS ONE, 2011).
Converted amounts (≈) assume the structure as drawn.

Legend:
[1] = test system: T1, Mycobacterium smegmatis Msmeg; assay: microbe, parasite or virus in culture; design: species or system Mycobacterium smegmatis DSM 43465; broth microdilution MIC in CAMHB, MTT staining, visual read-out; conditions: Mycolicibacterium smegmatis; read-out: Msmeg growth inhibition [MIC ug/mL]
T1 construct: DSM 43465
Description: The BEI parameter is conceptually very similar to previously published ligand efficiency (LE) parameters that normalize logarithmic affinity by non-hydrogen atom count rather than molecular weight ^5-7. Experimental Section Antibacterial in vitro assay for M. smegmatis. For MIC assays according to the Clinical and Laboratory Standards Institute M. smegmatis (strain DSM 43465) cells were grown in CAMHB medium at 35°C to an OD625nm higher than 0.09 followed by a dilution in medium to reach OD625nm of […] (“0.5 McFarland Standard”). These cell suspensions were brought to approximately 1 * 10^6 CFU/ml which corresponds to a 1:200 dilution. Resulting cell inoculi were diluted 1:1 with medium containing increasing concentrations of test compound as indicated in 96 well plates in duplicates (cell titer and purity of inoculum was checked in parallel by plating out on CAMHB-agar). After 24 – 48 h incubation MTT-solution (5 mg/ml thiaolyl blue tetrazoliumbromide) were added to stain wells with living cells and plates were photographed ^8. Wells with the lowest concentration of compound that were free of the dark brown color of bacteria were considered MICs. Ampicillin was used as a positive control antibiotic. Learning from the rich literature of potent in vitro enzyme inhibitors that were discarded due to the lack of antibacterial activity, we assayed the 31 selected FRIGATE hits for antibacterial activity prior to in vitro follow-up work. We utilized the less pathogenic and faster growing Mtb model organism Msmeg for primary growth inhibition testing.

antigen 85C (Ag85C) = biological target: T2, antigen 85C (Ag85C) (Mycobacterium tuberculosis, UniProt P9WQN9); assay: […]-HSQC NMR titration (chemical shift perturbation); assay type: binding
T2 construct: gene fbpC
T2 sequence (P9WQN9 46-340): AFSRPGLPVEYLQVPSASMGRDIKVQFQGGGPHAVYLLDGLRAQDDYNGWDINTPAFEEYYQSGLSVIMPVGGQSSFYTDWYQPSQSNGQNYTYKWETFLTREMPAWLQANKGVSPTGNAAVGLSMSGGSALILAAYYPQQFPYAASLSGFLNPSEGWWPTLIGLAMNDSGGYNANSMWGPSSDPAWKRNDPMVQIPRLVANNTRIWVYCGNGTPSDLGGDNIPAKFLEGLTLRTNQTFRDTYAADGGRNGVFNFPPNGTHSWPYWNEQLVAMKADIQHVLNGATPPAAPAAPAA

| Compound | MIC [1] [µg/mL] | Kd (antigen 85C (Ag85C)) [µM] |
| --- | --- | --- |
| OC(CNC1CCc2ccccc21)COc1ccc(-c2csnn2)cc1 (stereo not shown) [compound 3, 3] | 100 (≈ 272 µM) | – |
| CC1=C(C#N)c2nc(N)c(C#N)cc2C1=Cc1ccc(-c2ccccc2C(=O)O)o1 [compound 2, 2] | > 200 | – |
| Cc1cccn2c(=O)c3cc(C(=O)NCCCn4ccnc4)n(Cc4ccccc4)c3nc12 [compound 1, N-[3-(1H-imidazol-1-yl)propyl]-1-benzyl-9-methyl-4-oxo-1,4-dihydropyrido[1,2-a]pyrrolo[2,3-d]pyrimidine-2-carboxamide] | < 50 | 177 |
